Experiments:
S. aureus = settings: cited from earlier work
[1] = system: Bacteriophage ΔTOX:GFP (ϕΔTOX:GFP); assay type: cell-based
[2] = system: different bacterial strains; settings: cited from earlier work

| Sequence | bacteriophage inactivation activity (in words) [1] | phages inactivated [1] [%] | further results |
| --- | --- | --- | --- |
| ILRWPWWPWRRK [Omiganan, reference compound] | no inactivation activity |  | antimicrobial activity against S. aureus (S. aureus): activity against S. aureus |
| GLLKKWLKKWKEFKRIVGY [Peptide 2] | lowest inactivation activity |  | shape of phage neutralizing activity vs. concentration curve [1]: bell curve shaped behavior |
| GLLRKWGKKWKEFLRRVWK [Peptide 6.2] |  | ~100 | shape of phage neutralizing activity vs. concentration curve [1]: bell curve shaped behavior |
| RIVQRIAKWAKKWYKAGK [Peptide 8.1] | lowest inactivation activity |  |  |
| RIVQRILKWLKKWYKLGK [Peptide 8] |  | ~100 |  |
| RIVQRIKKWLLKWKKLGY [Peptide 5] |  | ~100 |  |
| MVVFSVPKFKSTVAKLLSSA [Random peptide, reference compound] | no inactivation activity |  | antimicrobial activity [2]: no antimicrobial activity |

Source: publication PMC5742231 (Frontiers in Chemistry, 2017)
